Results as given in patent US20220287970A1, “COMPOSITION FOR INHIBITING SAPONIN-INDUCED HEMOLYSIS, CONTAINING CATIONIC LIPOSOME” (priority 2020, published 2022).

Experiments:
[1] = tested on: red blood cells (RBCs); test: Hemolysis analysis: steroidal and triterpenoid saponins (Example 5); format: cell-based; conditions: saponin alone
Protocol: 1) The liposome, saponin, sucrose in a HEPES buffer (pH 7.4), and distilled water were placed in a 96-well plate, as shown in Tables 14 and 15 below.
2) The reaction was carried out at room temperature and 300 rpm for 30 minutes using an orbital shaker.
3) 3 mL of RBCs were suspended in 10 mL of PBS and centrifuged at room temperature and 1500 rpm for 5 minutes, after which the supernatant was removed.
4) Steps 2) and 3) were repeated three times, and thus the RBCs were washed.
5) The RBC pellet was suspended in 1 mL of PBS and diluted to 1/100, followed by cell counting.
6) The RBCs were diluted to 1.5×10^9 cells/mL using PBS and dispensed at 3×10^7 cells/20 μL/well in a 96-well plate treated with the test material of 2) above.
7) The reaction was carried out at room temperature and 300 rpm for 1 hour using an orbital shaker.
8) The 96-well plate was centrifuged at room temperature and 1500 rpm for 5 minutes.
9) 50 μL of the supernatant was transferred to a new 96-well plate, and the absorbance was then measured at 415 nm.
10) Hemolysis (%) was calculated using the following equation.
(§1) Hemolysis (%)=(OD of sample OD of 0% hemolysis)/(0D of 100% hemolysis−OD of 0% hemolysis)×100

[2] = tested on: red blood cells (RBCs); test: Hemolysis analysis: cationic liposome screening vs crude saponin and QS21 (Example 3); format: cell-based; conditions: saponin alone
Protocol: 1) After freeze-drying, the liposome stored in the glass vial was hydrated with 225 μL of distilled water and then allowed to react at 60° C. for 10 minutes to thus completely dissolve the liposome.
2) The liposome, saponin, sucrose in a HEPES buffer (pH 7.4), and distilled water were placed in a 96-well plate, as shown in Tables 8 and 9 below.
3) The reaction was carried out at room temperature and 300 rpm for 30 minutes using an orbital shaker.
4) 3 mL of RBCs were suspended in 10 mL of PBS and centrifuged at room temperature and 1500 rpm for 5 minutes, after which the supernatant was removed.
5) Steps 3) and 4) were repeated three times, and thus the RBCs were washed.
6) The RBC pellet was suspended in 1 mL of PBS and diluted to 1/100, followed by cell counting.
7) The RBCs were diluted to 1.5×10^9 cells/mL using PBS and dispensed at 3×10^7 cells/20 μL/well in a 96-well plate treated with the test material of 2) above.
8) The reaction was carried out at room temperature and 300 rpm for 1 hour using an orbital shaker.
9) The 96-well plate was centrifuged at room temperature and 1500 rpm for 5 minutes.
10) 50 μL of the supernatant was transferred to a new 96-well plate, and the absorbance was then measured at 415 nm.
11) Hemolysis (%) was calculated using the following equation.
as §1

Compound | amount of saponin at which 60% hemolysis was observed [1] [µg] | amount of saponin at which 100% hemolysis was observed [1] [µg] | amount of saponin at which 100% hemolysis was observed [2] [µg]
C[C@@H]1CC[C@@]2(OC1)O[C@H]1C[C@H]3[C@@H]4CC=C5C[C@@H](O[C@@H]6O[C@H](CO)[C@@H](O[C@@H]7O[C@@H](C)[C@H](O[C@@H]8O[C@@H](C)[C@H](O)[C@@H](O)[C@H]8O)[C@@H](O)[C@H]7O)[C@H](O)[C@H]6O[C@@H]6O[C@@H](C)[C@H](O)[C@@H](O)[C@H]6O)CC[C@]5(C)[C@H]4CC[C@]3(C)[C@@]1(O)[C@@H]2C [Paris VII] | 1.25 | 5 | –
QS21 | – | – | 2.5
C[C@@H]1CC[C@@]2(OC1)O[C@H]1[C@@H](O)[C@H]3[C@@H]4CC[C@H]5C[C@@H](O[C@@H]6O[C@H](CO)[C@H](O[C@@H]7O[C@H](CO)[C@@H](O)[C@H](O[C@@H]8OC[C@@H](O)[C@H](O)[C@H]8O)[C@H]7O[C@@H]7O[C@H](CO)[C@H](O)[C@H](O[C@@H]8O[C@H](CO)[C@@H](O)[C@H](O)[C@H]8O)[C@H]7O)[C@H](O)[C@H]6O)[C@H](O)C[C@]5(C)[C@H]4CC[C@]3(C)[C@H]1[C@@H]2C [digitonin] | 2.5 | 10 | –
C[C@@H]1O[C@@H](O[C@H]2[C@H](O[C@H]3CC[C@@]4(C)[C@@H](CC[C@]5(C)[C@@H]4CC=C4[C@@H]6CC(C)(C)CC[C@]6(C(=O)O)CC[C@]45C)[C@]3(C)CO)OC[C@H](O)[C@@H]2O)[C@H](O)[C@H](O)[C@H]1O [α-hederin] | 1.25 | 10 | –
